The numbers were not newly measured in patent US10799517B2, “Oral composition of celecoxib for treatment of pain” (Dr. Reddy's Laboratories Ltd., priority 2015, dated 2020), which cites them from elsewhere.

For series [1] the following is noted: upon oral administration.
The conditions of series [2]: between 5° C. and 40° C.; pH independent at pH<9.

The structures appear in SMILES notation.

As for `Cc1ccc(-c2cc(C(F)(F)F)nn2-c2ccc(S(N)(=O)=O)cc2)cc1` [Celecoxib, 4-[5-(4-methylphenyl)-3-(trifluoromethyl)-1H-pyrazol-1-yl] benzenesulfonamide], in series [1], the “time for peak plasma concentrations to be achieved” value is listed as “approximately 3.0 hours”. Also, the aqueous solubility result in series [2] is listed as “about 5 μg/ml”.
